Assays:
[1] = In vitro skin flux study (Franz cell transdermal flux test); assay type: in vitro ADME, human; details: free base; conclusion from the in vitro skin flux study
Text: Human cadaver skin was used and epidermal layers (stratum corneum and epidermis) were separated from the full-thickness skin as skin membrane. Samples were die-cut with an arch punch to a final diameter of about 2.0 cm^2. The release liner was removed and the system was placed on top of the epidermis/stratum corneum with the drug adhesive layer facing the stratum corneum. Gentle pressure was applied to effect good contact between the adhesive layer and stratum corneum. The donor and receptor sides of the Franz cell were clamped together and the receptor solution containing a phosphate buffer at pH 6.5 was added to the Franz cell. The cells were kept at 33° C. for the duration of the experiment. Samples of the receptor solution were taken at regular intervals and the active agent concentration was measured by HPLC. The removed receptor solution was replaced with fresh solution to maintain the sink conditions. The flux was calculated from the slope of cumulative amounts of the drug in the receiver compartment versus time plot.
Transdermal delivery devices containing various formulations of (1 R,2 R,3 S,5 S)-3-(3,4-dichlorophenyl)-2-(methoxymethyl)-8-azabicyclo[3.2.1]octane (i.e., NS2359) are summarized in Table 1. An in vitro skin flux study was performed as described above with transdermal delivery devices having the formulations listed in Table 1. […]

[2] = Astrup et al., 2008, Lancet 372: 1906-13; cited from earlier work

In the case of `COC[C@@H]1[C@@H](c2ccc(Cl)c(Cl)c2)C[C@@H]2CC[C@H]1N2` [NS2359, (1 R,2 R,3 S,5 S)-3-(3,4-dichlorophenyl)-2-(methoxymethyl)-8-azabicyclo[3.2.1]octane], the Transdermal deliverability [1] is reported as “can be delivered transdermally”.

For `CCOC[C@@H]1[C@@H](c2ccc(Cl)c(Cl)c2)C[C@@H]2CC[C@H]1N2C` [Tesofensine, (1 R,2 R,3 S,5 S)-3-(3,4-dichlorophenyl)-2-(ethoxymethyl)-8-methyl-8-azabicyclo[3.2.1]octane], the Sagittal diameter [2] is given as “significantly decreases” and the Waist circumference [2] is given as “significantly decreases”.
